6 molecules from patent publication US10266577B2, “GLP-1 derivatives, and uses thereof” (Novo Nordisk A/S, priority 2013, dated 2019) can be followed below.

Each structure is given as a SMILES string. Square brackets hold non-standard residues; d marks the D form. Side chains are listed from the residue outwards. Peptide text beside a SMILES is read from it. * marks the point of attachment. Hexadecanoyl(16-SO3H) = O=C(CCCCCCCCCCCCCCCS(=O)(=O)O)*; Cya = N[C@@H](CS(=O)(=O)O)C(=O)O; Trx = NC[C@H]1CC[C@H](C(=O)O)CC1; AEEA = NCCOCCOCC(=O)O; Aib = CC(C)(N)C(=O)O

One series has as its target T1, human GLP-1 receptor (Homo sapiens, UniProt P43220).
T1 construct: expressed in transfected cells; host or cells: BHK cells (parent line BHKTS13), clone FCW467-12A; membrane preparation
The series can be described thus: GLP-1 receptor binding: competitive binding assay (125I-GLP-1, SPA) on isolated membranes at low and high HSA. Conditions: high serum albumin (2.0% HSA final assay concentration); displacement of 125I-GLP-1.

Another series in a line: in vivo. The note with it: male, Göttingen, minipig, iv.

T1 sequence (P43220 24-463): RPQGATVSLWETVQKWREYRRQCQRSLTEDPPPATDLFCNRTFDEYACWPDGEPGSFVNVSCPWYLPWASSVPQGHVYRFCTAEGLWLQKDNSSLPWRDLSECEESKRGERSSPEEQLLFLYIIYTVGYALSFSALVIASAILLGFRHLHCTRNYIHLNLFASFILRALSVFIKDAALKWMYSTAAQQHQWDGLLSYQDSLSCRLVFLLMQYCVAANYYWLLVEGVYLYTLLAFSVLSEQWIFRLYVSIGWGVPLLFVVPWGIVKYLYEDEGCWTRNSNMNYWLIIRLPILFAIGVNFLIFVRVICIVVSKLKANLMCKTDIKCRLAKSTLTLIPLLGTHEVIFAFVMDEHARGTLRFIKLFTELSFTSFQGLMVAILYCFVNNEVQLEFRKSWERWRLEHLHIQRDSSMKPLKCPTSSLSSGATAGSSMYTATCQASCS
Procedure for human GLP-1 receptor: The purpose of this example is to test the receptor binding of the GLP-1 derivatives in vitro. The receptor binding is a measure of affinity of a derivative for the human GLP-1 receptor.
In this type of assay a labelled ligand (in this case ^125I-GLP-1) is bound to the receptor. Each derivative is added in a series of concentrations to isolated membranes containing the human GLP-1 receptor and displacement of the labelled ligand is monitored. The receptor binding is reported as the concentration at which half of the labelled ligand is displaced from the receptor, the IC50 value.
The following chemicals were used in the assay: Human serum albumin (HSA) (Sigma A1653), DMEM w/o phenol red (Gibco 11880-028), Pen/strep (Invitrogen 15140-122), G418 (Invitrogen 10131-027), 1 M Hepes (Gibco 15630), EDTA (Invitrogen 15575-038), PBS (Invitrogen 14190-094), fetal calf serum (Invitrogen 16140-071), EGTA, MgCl2 (Merck 1.05832.1000), Tween 20 (Amresco 0850C335), SPA particles (wheat germ agglutinin (WGA) SPA beads, Perkin Elmer RPNQ0001), [^125I]-GLP-1]-(7-36)NH2 (produced in-house), OptiPlate™-96 (Packard 6005290).
Buffer 1 consisted of 20 mM Na-HEPES plus 10 mM EDTA and pH was adjusted to 7.4. Buffer 2 consisted of 20 mM Na-HEPES plus 0.1 mM EDTA and pH was adjusted to 7.4. Assay buffer consisted of 50 mM HEPES supplemented with 5 mM EGTA, 5 mM MgCl2, 0.005% Tween 20 and pH was adjusted to 7.4. An 8% albumin stock consisted of HSA dissolved at 8% (w/v) in assay buffer. An 0.02% albumin stock consisted of HSA dissolved at 0.02% (w/v) in assay buffer.
The cells express the human GLP-1 receptor.
The cells were grown at 5% CO2 in DMEM, 10% fetal calf serum, 1% Pen/Strep (Penicillin/Streptomycin) and 1.0 mg/ml of the selection marker G418.
To make a membrane preparation the cells were grown to approximately 80% confluence. The cells were washed twice in phosphate-buffered saline and harvested. The cells were pelleted using a brief centrifugation and the cell pellet was kept on ice. The cell pellet was homogenised with ULTRA-THURRAX™ dispersing instrument for 20-30 seconds in a suitable amount of buffer 1 (e.g., 10 ml). The homogenate was centrifuged for 15 minutes. The pellet was re-suspended (homogenised) in 10 ml buffer 2 and centrifuged. This step was repeated once more. The resulting pellet was re-suspended in buffer 2 and the protein concentration was determined. The membranes were aliquoted and stored at minus 80° C.
For the receptor binding assay in the presence of low HSA (0.005%) 50 μl of the assay buffer was added to each well of an assay plate. Assay continued with step 3.
For the receptor binding assay in the presence of high HSA (2%) 50 μl of the 8% albumin stock was added to each well of an assay plate. Assay continued with step 3.
Cell membrane aliquots were thawed and diluted to their working concentration. Fifty μl were added to each well in the assay plate.
WGA SPA beads were suspended in assay buffer at 20 mg/ml. The suspension was diluted to 10 mg/ml in assay buffer just prior to addition to the assay plate. Fifty μl were added to each well in the assay plate.
The incubation was started by adding 25 μl of 480 pM solution of [^125I]-GLP-1]-(7-36)NH2 to each well of the assay plate. A 25 μl aliquot was reserved for measuring total counts/well.
The assay plate was incubated for 2 h at 30° C.
The assay plate was centrifuged for 10 min.
The assay plate was read in a Packard TopCount NXT instrument.
The data from the TopCount instrument were transferred to GraphPad Prism software. The software averaged the values for the replicates and performed a non-linear regression. IC50 values were calculated by the software and reported in nM.
Procedure for in vivo: The purpose of this study is to determine the protraction in vivo of the GLP-1 derivatives after i.v. administration to minipigs, i.e. the prolongation of their time in the body and thereby their time of action. This is done in a pharmacokinetic (PK) study, where the terminal half-life of the derivative in question is determined. By terminal half-life is meant the time it takes to halve a certain plasma concentration in the terminal elimination phase.
Male Göttingen minipigs were obtained from Ellegaard Göttingen Minipigs (Dalmose, Denmark) approximately 7-14 months of age and weighing approximately 16-35 kg were used in the studies. The minipigs were housed either individually (pigs with permanent catheters) or in a group and fed restrictedly once or twice daily with SDS minipig diet (Special Diets Services, Essex, UK).
After at least 2 weeks of acclimatisation two permanent central venous catheters were implanted in vena cava caudalis or cranialis in each animal. The animals were allowed 1 week recovery after the surgery, and were then used for repeated pharmacokinetic studies with a suitable wash-out period between successive GLP-1 derivative dosings.
Blood samples (for example 0.8 ml) were collected in EDTA buffer (8 mM) and then centrifuged at 4° C. and 1942G for 10 minutes.
Plasma was pipetted into Micronic tubes on dry ice, and kept at −20° C. until analysed for plasma concentration of the respective GLP-1 compound using LOCI. Individual plasma concentration-time profiles were analyzed by a non-compartmental pharmacokinetic method in Phoenix v. 6.2 (Pharsight Inc., Mountain View, Calif., USA), or other relevant software for PK analysis, and the resulting terminal half-lives (harmonic mean) determined.

Take `CC[C@H](C)[C@H](NC(=O)[C@H](Cc1ccccc1)NC(=O)[C@H](CCC(=O)O)NC(=O)[C@H](CCCNC(=N)N)NC(=O)[C@H](C)NC(=O)[C@H](C)NC(=O)[C@H](CCC(N)=O)NC(=O)[C@H](CCCCNC(=O)COCCOCCNC(=O)COCCOCCNC(=O)COCCOCCNC(=O)COCCOCCNC(=O)COCCOCCNC(=O)[C@@H](N)CCCCNC(=O)[C@@H](N)CCCCNC(=O)CCCCCNC(=O)CCCCCCCCCCCCCCCS(=O)(=O)O)NC(=O)[C@H](CCC(=O)O)NC(=O)[C@H](CC(C)C)NC(=O)[C@H](Cc1ccc(O)cc1)NC(=O)[C@H](CCCCNC(=O)COCCOCCNC(=O)COCCOCCNC(=O)COCCOCCNC(=O)COCCOCCNC(=O)COCCOCCNC(=O)[C@@H](N)CCCCNC(=O)[C@@H](N)CCCCNC(=O)CCCCCNC(=O)CCCCCCCCCCCCCCCS(=O)(=O)O)NC(=O)[C@H](CO)NC(=O)[C@@H](NC(=O)[C@H](CC(=O)O)NC(=O)[C@H](CO)NC(=O)[C@@H](NC(=O)[C@H](Cc1ccccc1)NC(=O)[C@@H](NC(=O)CNC(=O)[C@H](CCC(=O)O)NC(=O)C(C)(C)NC(=O)[C@@H](N)Cc1c[nH]cn1)[C@@H](C)O)[C@@H](C)O)C(C)C)C(=O)N[C@@H](CCCCNC(=O)COCCOCCNC(=O)COCCOCCNC(=O)COCCOCCNC(=O)COCCOCCNC(=O)COCCOCCNC(=O)[C@@H](N)CCCCNC(=O)[C@@H](N)CCCCNC(=O)CCCCCNC(=O)CCCCCCCCCCCCCCCS(=O)(=O)O)C(=O)N[C@@H](Cc1c[nH]c2ccccc12)C(=O)N[C@@H](CC(C)C)C(=O)N[C@H](C(=O)N[C@@H](CCCNC(=N)N)C(=O)NCC(=O)N[C@@H](CCCNC(=N)N)C(=O)NCC(=O)O)C(C)C` [Example 20]: the IC50 at human GLP-1 receptor came to 0.1 µM.

`CC[C@H](C)[C@H](NC(=O)[C@H](Cc1ccccc1)NC(=O)[C@H](CCC(=O)O)NC(=O)[C@H](CCCCNC(=O)[C@@H](N)CCCCNC(=O)[C@H](CO)NC(=O)[C@H](CO)NC(=O)[C@H](CO)NC(=O)[C@H](CO)NC(=O)[C@H](CO)NC(=O)CC[C@H](NC(=O)CCCCCCCCCCCCCCCCC(=O)O)C(=O)O)NC(=O)[C@H](C)NC(=O)[C@H](C)NC(=O)[C@H](CCC(N)=O)NC(=O)CNC(=O)[C@H](CCC(=O)O)NC(=O)[C@H](CC(C)C)NC(=O)[C@H](Cc1ccc(O)cc1)NC(=O)[C@H](CCCCNC(=O)[C@@H](N)CCCCNC(=O)[C@H](CO)NC(=O)[C@H](CO)NC(=O)[C@H](CO)NC(=O)[C@H](CO)NC(=O)[C@H](CO)NC(=O)CC[C@H](NC(=O)CCCCCCCCCCCCCCCCC(=O)O)C(=O)O)NC(=O)[C@H](CO)NC(=O)[C@@H](NC(=O)[C@H](CC(=O)O)NC(=O)[C@H](CO)NC(=O)[C@@H](NC(=O)[C@H](Cc1ccccc1)NC(=O)[C@@H](NC(=O)CNC(=O)[C@H](CCC(=O)O)NC(=O)C(C)(C)NC(=O)[C@@H](N)Cc1c[nH]cn1)[C@@H](C)O)[C@@H](C)O)C(C)C)C(=O)N[C@@H](C)C(=O)N[C@@H](Cc1c[nH]c2ccccc12)C(=O)N[C@@H](CC(C)C)C(=O)N[C@H](C(=O)N[C@@H](CCCNC(=N)N)C(=O)NCC(=O)N[C@@H](CCCNC(=N)N)C(=O)N[C@@H](CCCCNC(=O)[C@@H](N)CCCCNC(=O)[C@H](CO)NC(=O)[C@H](CO)NC(=O)[C@H](CO)NC(=O)[C@H](CO)NC(=O)[C@H](CO)NC(=O)CC[C@H](NC(=O)CCCCCCCCCCCCCCCCC(=O)O)C(=O)O)C(=O)O)C(C)C` [Example 3] showed a half-life in “in vivo” of 120 h.

In “in vivo”, `CC[C@H](C)[C@H](NC(=O)[C@H](Cc1ccccc1)NC(=O)[C@H](CCC(=O)O)NC(=O)[C@H](CCCNC(=N)N)NC(=O)[C@H](C)NC(=O)[C@H](C)NC(=O)[C@H](CCC(N)=O)NC(=O)[C@H](CCCCNC(=O)COCCOCCNC(=O)COCCOCCNC(=O)[C@H](CS(=O)(=O)O)NC(=O)CCCCCCCCCCCCCCCS(=O)(=O)O)NC(=O)[C@H](CCC(=O)O)NC(=O)[C@H](CC(C)C)NC(=O)[C@H](Cc1ccc(O)cc1)NC(=O)[C@H](CCCCNC(=O)COCCOCCNC(=O)COCCOCCNC(=O)[C@H](CS(=O)(=O)O)NC(=O)CCCCCCCCCCCCCCCS(=O)(=O)O)NC(=O)[C@H](CO)NC(=O)[C@@H](NC(=O)[C@H](CC(=O)O)NC(=O)[C@H](CO)NC(=O)[C@@H](NC(=O)[C@H](Cc1ccccc1)NC(=O)[C@@H](NC(=O)CNC(=O)[C@H](CCC(=O)O)NC(=O)C(C)(C)NC(=O)[C@@H](N)Cc1c[nH]cn1)[C@@H](C)O)[C@@H](C)O)C(C)C)C(=O)N[C@@H](CCCCNC(=O)COCCOCCNC(=O)COCCOCCNC(=O)[C@H](CS(=O)(=O)O)NC(=O)CCCCCCCCCCCCCCCS(=O)(=O)O)C(=O)N[C@@H](Cc1c[nH]c2ccccc12)C(=O)N[C@@H](CC(C)C)C(=O)N[C@H](C(=O)N[C@@H](CCCNC(=N)N)C(=O)NCC(=O)N[C@@H](CCCNC(=N)N)C(=O)NCC(=O)O)C(C)C` [Example 2] (H-H[Aib]EGTFTSDVSK([AEEA-AEEA-Cya-Hexadecanoyl(16-SO3H)])YLEK([AEEA-AEEA-Cya-Hexadecanoyl(16-SO3H)])QAAREFIK([AEEA-AEEA-Cya-Hexadecanoyl(16-SO3H)])WLVRGRG-OH; N-terminus and C-terminus assumed) gave a half-life of 140 h.

In the series “in vivo”, `CC[C@H](C)[C@H](NC(=O)[C@H](Cc1ccccc1)NC(=O)[C@H](CCC(=O)O)NC(=O)[C@H](CCCCNC(=O)[C@@H](N)CCCCNC(=O)COCCOCCNC(=O)COCCOCCNC(=O)[C@H](CS(=O)(=O)O)NC(=O)CCCCCCCCCCCCCCCS(=O)(=O)O)NC(=O)[C@H](C)NC(=O)[C@H](C)NC(=O)[C@H](CCC(N)=O)NC(=O)[C@H](CCC(=O)O)NC(=O)[C@H](CCC(=O)O)NC(=O)[C@H](CC(C)C)NC(=O)[C@H](Cc1ccc(O)cc1)NC(=O)[C@H](CO)NC(=O)[C@H](CO)NC(=O)[C@@H](NC(=O)[C@H](CC(=O)O)NC(=O)[C@H](CO)NC(=O)[C@@H](NC(=O)[C@H](Cc1ccccc1)NC(=O)[C@@H](NC(=O)CNC(=O)[C@H](CCC(=O)O)NC(=O)C(C)(C)NC(=O)[C@@H](N)Cc1c[nH]cn1)[C@@H](C)O)[C@@H](C)O)C(C)C)C(=O)N[C@@H](CCCCNC(=O)[C@@H](N)CCCCNC(=O)COCCOCCNC(=O)COCCOCCNC(=O)[C@H](CS(=O)(=O)O)NC(=O)CCCCCCCCCCCCCCCS(=O)(=O)O)C(=O)N[C@@H](Cc1c[nH]c2ccccc12)C(=O)N[C@@H](CC(C)C)C(=O)N[C@H](C(=O)N[C@@H](CCCNC(=N)N)C(=O)NCC(=O)N[C@@H](CCCNC(=N)N)C(=O)N[C@@H](CCCCNC(=O)[C@@H](N)CCCCNC(=O)COCCOCCNC(=O)COCCOCCNC(=O)[C@H](CS(=O)(=O)O)NC(=O)CCCCCCCCCCCCCCCS(=O)(=O)O)C(=O)O)C(C)C` [Example 12] had a half-life of 111 h.

The molecule `CC[C@H](C)[C@H](NC(=O)[C@H](Cc1ccccc1)NC(=O)[C@H](CCC(=O)O)NC(=O)[C@H](CCCCNC(=O)[C@H](CO)NC(=O)[C@H](CO)NC(=O)[C@H](CO)NC(=O)[C@H](CO)NC(=O)[C@H](CO)NC(=O)[C@H](CO)NC(=O)CC[C@H](NC(=O)CCCCCCCCCCCCCCCCC(=O)O)C(=O)O)NC(=O)[C@H](C)NC(=O)[C@H](C)NC(=O)[C@H](CCC(N)=O)NC(=O)CNC(=O)[C@H](CCC(=O)O)NC(=O)[C@H](CC(C)C)NC(=O)[C@H](Cc1ccc(O)cc1)NC(=O)[C@H](CCCCNC(=O)[C@H](CO)NC(=O)[C@H](CO)NC(=O)[C@H](CO)NC(=O)[C@H](CO)NC(=O)[C@H](CO)NC(=O)[C@H](CO)NC(=O)CC[C@H](NC(=O)CCCCCCCCCCCCCCCCC(=O)O)C(=O)O)NC(=O)[C@H](CO)NC(=O)[C@@H](NC(=O)[C@H](CC(=O)O)NC(=O)[C@H](CO)NC(=O)[C@@H](NC(=O)[C@H](Cc1ccccc1)NC(=O)[C@@H](NC(=O)CNC(=O)[C@H](CCC(=O)O)NC(=O)C(C)(C)NC(=O)[C@@H](N)Cc1c[nH]cn1)[C@@H](C)O)[C@@H](C)O)C(C)C)C(=O)N[C@@H](C)C(=O)N[C@@H](Cc1c[nH]c2ccccc12)C(=O)N[C@@H](CC(C)C)C(=O)N[C@H](C(=O)N[C@@H](CCCNC(=N)N)C(=O)NCC(=O)N[C@@H](CCCNC(=N)N)C(=O)N[C@@H](CCCCNC(=O)[C@H](CO)NC(=O)[C@H](CO)NC(=O)[C@H](CO)NC(=O)[C@H](CO)NC(=O)[C@H](CO)NC(=O)[C@H](CO)NC(=O)CC[C@H](NC(=O)CCCCCCCCCCCCCCCCC(=O)O)C(=O)O)C(=O)O)C(C)C` [Example 8] gave a half-life in “in vivo” of 138 h.

`CC[C@H](C)[C@H](NC(=O)[C@H](Cc1ccccc1)NC(=O)[C@H](CCC(=O)O)NC(=O)[C@H](CCCNC(=N)N)NC(=O)[C@H](C)NC(=O)[C@H](C)NC(=O)[C@H](CCC(N)=O)NC(=O)[C@H](CCCCNC(=O)COCCOCCNC(=O)COCCOCCNC(=O)[C@H](CS(=O)(=O)O)NC(=O)[C@H]1CC[C@H](CNC(=O)CCCCCCCCCCCCCCCS(=O)(=O)O)CC1)NC(=O)[C@H](CCC(=O)O)NC(=O)[C@H](CC(C)C)NC(=O)[C@H](Cc1ccc(O)cc1)NC(=O)[C@H](CCCCNC(=O)COCCOCCNC(=O)COCCOCCNC(=O)[C@H](CS(=O)(=O)O)NC(=O)[C@H]1CC[C@H](CNC(=O)CCCCCCCCCCCCCCCS(=O)(=O)O)CC1)NC(=O)[C@H](CO)NC(=O)[C@@H](NC(=O)[C@H](CC(=O)O)NC(=O)[C@H](CO)NC(=O)[C@@H](NC(=O)[C@H](Cc1ccccc1)NC(=O)[C@@H](NC(=O)CNC(=O)[C@H](CCC(=O)O)NC(=O)C(C)(C)NC(=O)[C@@H](N)Cc1c[nH]cn1)[C@@H](C)O)[C@@H](C)O)C(C)C)C(=O)N[C@@H](CCCCNC(=O)COCCOCCNC(=O)COCCOCCNC(=O)[C@H](CS(=O)(=O)O)NC(=O)[C@H]1CC[C@H](CNC(=O)CCCCCCCCCCCCCCCS(=O)(=O)O)CC1)C(=O)N[C@@H](Cc1c[nH]c2ccccc12)C(=O)N[C@@H](CC(C)C)C(=O)N[C@H](C(=O)N[C@@H](CCCNC(=N)N)C(=O)NCC(=O)N[C@@H](CCCNC(=N)N)C(=O)NCC(=O)O)C(C)C` [Example 4] (H-H[Aib]EGTFTSDVSK([AEEA-AEEA-Cya-Trx-Hexadecanoyl(16-SO3H)])YLEK([AEEA-AEEA-Cya-Trx-Hexadecanoyl(16-SO3H)])QAAREFIK([AEEA-AEEA-Cya-Trx-Hexadecanoyl(16-SO3H)])WLVRGRG-OH; N-terminus and C-terminus assumed): in “in vivo”, the half-life was 120 h.
